Calls of active or inactive are those of the source. The rule behind the calls is not given here. Where a SMILES comes first, the peptide text is derived from it. [ ]: non-standard residue; d: D form.
These molecules were tested against T1, Endothelin-1 receptor (Homo sapiens, UniProt P25101) (assay: Displacement of [I125]ET1 from recombinant ETA receptor expressed in CHO cells after 2 hrs by TopCount analysis).
T1 sequence (P25101 whole entry): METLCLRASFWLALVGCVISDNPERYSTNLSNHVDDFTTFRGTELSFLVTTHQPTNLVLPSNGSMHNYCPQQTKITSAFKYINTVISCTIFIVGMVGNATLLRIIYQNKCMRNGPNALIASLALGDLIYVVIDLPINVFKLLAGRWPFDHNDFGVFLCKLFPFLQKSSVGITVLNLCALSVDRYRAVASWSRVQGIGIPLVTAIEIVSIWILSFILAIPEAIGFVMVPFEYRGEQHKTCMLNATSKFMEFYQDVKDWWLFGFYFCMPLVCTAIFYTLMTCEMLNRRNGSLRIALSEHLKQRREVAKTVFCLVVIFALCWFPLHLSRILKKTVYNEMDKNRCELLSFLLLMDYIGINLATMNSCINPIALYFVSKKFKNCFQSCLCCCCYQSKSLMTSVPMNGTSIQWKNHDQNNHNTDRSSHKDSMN
Type: cell-based

| IC50 | SMILES |
| --- | --- |
| 2.1 nM | COc1ccccc1Oc1c(NS(=O)(=O)NCc2ccccc2)nc(-c2cnccn2)nc1OCCOc1ncc(Br)cn1 |
| 1.4 nM | COc1ccc(Cl)c(Oc2c(NS(=O)(=O)NCc3ccccc3)ncnc2OCCOc2ncc(Br)cn2)c1 |
| 8 nM | COc1ccccc1Oc1c(NS(=O)(=O)CCc2ccccc2)nc(-c2ncccn2)nc1OCCOc1ncccn1 |
| 1.4 nM | COc1ccccc1Oc1c(NS(=O)(=O)NCc2ccccc2)nc(N2CCOCC2)nc1OCCOc1ncc(Br)cn1 |
| 1 nM | COc1cccc(Oc2c(NS(=O)(=O)NCc3ccccc3)ncnc2OCCOc2ncc(Br)cn2)c1 |
| 10.4 nM | COc1ccccc1Oc1c(NS(=O)(=O)c2ccccc2)nc(-c2ncccn2)nc1OCCOc1ncc(Br)cn1 |
| 0.8 nM | CCNS(=O)(=O)Nc1ncnc(OCCOc2ncc(Br)cn2)c1-c1ccc(Br)cc1 |
| 6.8 nM | O=S(=O)(NCc1ccccc1)Nc1ncnc(OCCOc2ncc(Br)cn2)c1-c1ccccc1 |
| 0.7 nM | Cc1ccc(-c2c(NS(=O)(=O)NCc3ccccc3)ncnc2OCCOc2ncc(Br)cn2)cc1 |
| 1.1 nM | COc1ccccc1Oc1c(NS(=O)(=O)CCc2ccccc2)nc(-c2ncccn2)nc1OCCOc1ncc(SC)cn1 |
| 3 nM | COc1ccccc1Oc1c(NS(=O)(=O)CCc2ccccc2)nc(-c2ncccn2)nc1OCCOc1ncc(C(F)(F)F)cn1 |
| 40 nM | COc1nc(NS(=O)(=O)NCc2ccccc2)c(Oc2ccccc2OC)c(OCCOc2ncc(Br)cn2)n1 |
| 2.3 nM | CCc1ccc(-c2c(NS(=O)(=O)NCc3ccccc3)ncnc2OCCOc2ncc(Br)cn2)cc1 |
| 6.7 nM | COc1ccccc1Oc1c(NS(=O)(=O)CCCc2ccccc2)nc(-c2ncccn2)nc1OCCOc1ncc(Br)cn1 |
| 2.2 nM | COc1ccccc1Oc1c(NS(=O)(=O)CCc2ccccc2)nc(-c2ncccn2)nc1OCCOc1ncc(Br)cn1 |
| 187 nM | COc1ccccc1Oc1c(NS(=O)(=O)N2CCOCC2)nc(-c2ncccn2)nc1OCCOc1ncc(Br)cn1 |
| 4.3 nM | CCCCS(=O)(=O)Nc1nc(-c2ncccn2)nc(OCCOc2ncc(Br)cn2)c1Oc1ccccc1OC |
| 113 nM | COc1ccccc1Oc1c(NS(C)(=O)=O)nc(-c2ncccn2)nc1OCCOc1ncc(Br)cn1 |
| 4.3 nM | COc1ccccc1Oc1c(NS(=O)(=O)c2ccc(C(C)(C)C)cc2)nc(-c2ncccn2)nc1OCCOc1ncccn1 |
| 25.7 nM | COc1ccccc1Oc1c(NS(=O)(=O)CCc2ccccc2)nc(-c2ncccn2)nc1OCCO |
| 2.8 nM | COc1ccccc1Oc1c(NS(=O)(=O)CCc2ccccc2)nc(-c2ncccn2)nc1OCCOc1ncc(Cl)cn1 |
| 14 nM | CCS(=O)(=O)Nc1nc(-c2ncccn2)nc(OCCOc2ncc(Br)cn2)c1Oc1ccccc1OC |
| 2.8 nM | O=S(=O)(Nc1ncnc(OCCOc2ncc(Br)cn2)c1-c1ccc(Br)cc1)N1CCOCC1 |
| 4530 nM | COc1ccccc1Oc1c(NS(C)(=O)=O)nc(-c2ncccn2)nc1OCCO |
| 1.2 nM | CCCNS(=O)(=O)Nc1ncnc(OCCOc2ncc(Br)cn2)c1-c1ccc(Cl)cc1 |
| 9.4 nM | CCCS(=O)(=O)Nc1nc(-c2ncccn2)nc(OCCOc2ncc(Br)cn2)c1Oc1ccccc1OC |

| IC50 | SMILES |
| --- | --- |
| 1.5 nM | COc1ccccc1Oc1c(NS(=O)(=O)c2ccc(C(C)(C)C)cc2)nc(-c2ncccn2)nc1OCCOc1ncc(Br)cn1 |
| 20.5 nM | CC(C)C[C@@H]1NC(=O)[C@@H](C(C)C)NC(=O)[C@@H]2CCCN2C(=O)[C@@H](CC(=O)O)NC(=O)[C@@H](Cc2c[nH]c3ccccc23)NC1=O [BQ-123] (cyclo(L[dW][dD]P[dV])) |
| 1.9 nM | CCCNS(=O)(=O)Nc1ncnc(OCCOc2ncc(Br)cn2)c1Oc1cccc(OC)c1 |
| 1.1 nM | CCCCS(=O)(=O)Nc1ncnc(OCCOc2ncc(Br)cn2)c1-c1ccc(Br)cc1 |
| 17.8 nM | COc1ccccc1Oc1c(NS(=O)(=O)CCc2ccccc2)nc(-c2ncccn2)nc1OCCOc1ncc(C)cn1 |
| 7.9 nM | CNS(=O)(=O)Nc1nc(-c2ncccn2)nc(OCCOc2ncc(Br)cn2)c1Oc1ccccc1OC |
| 1.9 nM | COc1ccccc1Oc1c(NS(=O)(=O)NCc2ccccc2)nc(-c2ncccn2)nc1OCCOc1ncc(Br)cn1 |
| 4780 nM | COc1cc(OC)nc(OCCOc2nc(-c3ncccn3)nc(NS(=O)(=O)CCc3ccccc3)c2Oc2ccccc2OC)n1 |
| 73 nM | COc1ccccc1Oc1c(NS(=O)(=O)Cc2ccccc2)nc(-c2ncccn2)nc1OCCOc1ncc(Br)cn1 |
| 9.9 nM | CCNS(=O)(=O)Nc1nc(-c2ncccn2)nc(OCCOc2ncc(Br)cn2)c1Oc1ccccc1OC |
| 2.2 nM | CCCS(=O)(=O)Nc1ncnc(OCCOc2ncc(Br)cn2)c1-c1ccc(Br)cc1 |
| 7 nM | COc1ccccc1Oc1c(NS(=O)(=O)N(C)Cc2ccccc2)nc(-c2ncccn2)nc1OCCOc1ncc(Br)cn1 |
| 14 nM | COc1ccccc1Oc1c(NS(=O)(=O)NCc2ccccc2)nc(C2CC2)nc1OCCOc1ncc(Br)cn1 |
| 4.3 nM | CN(Cc1ccccc1)S(=O)(=O)Nc1ncnc(OCCOc2ncc(Br)cn2)c1-c1ccc(Br)cc1 |
| 3.4 nM | COc1ccccc1Oc1c(NS(=O)(=O)NCc2ccccc2)nc(-c2ccncc2)nc1OCCOc1ncc(Br)cn1 |
| 0.4 nM | CCCNS(=O)(=O)Nc1ncnc(OCCOc2ncc(Br)cn2)c1Oc1cc(OC)ccc1Cl |
| 6.9 nM | COCCOc1nc(NS(=O)(=O)NCc2ccccc2)c(Oc2ccccc2OC)c(OCCOc2ncc(Br)cn2)n1 |
| 3.4 nM | NS(=O)(=O)Nc1ncnc(OCCOc2ncc(Br)cn2)c1-c1ccc(Br)cc1 [APROCITENTAN] |
| 1.7 nM | CCCCNS(=O)(=O)Nc1nc(-c2ncccn2)nc(OCCOc2ncc(Br)cn2)c1Oc1ccccc1OC |
| 3.8 nM | CCCNS(=O)(=O)Nc1nc(-c2ncccn2)nc(OCCOc2ncc(Br)cn2)c1Oc1ccccc1OC |
| 7.7 nM | COc1ccccc1Oc1c(NS(=O)(=O)CCc2ccccc2)nc(-c2ncccn2)nc1OCCOc1ncc(C2CC2)cn1 |
| 3.2 nM | COc1cnc(OCCOc2nc(-c3ncccn3)nc(NS(=O)(=O)CCc3ccccc3)c2Oc2ccccc2OC)nc1 |
| 6.9 nM | COc1ccccc1Oc1c(NS(=O)(=O)NCc2ccccc2)ncnc1OCCOc1ncc(Br)cn1 |
| 1.7 nM | CNS(=O)(=O)Nc1ncnc(OCCOc2ncc(Br)cn2)c1-c1ccc(Br)cc1 |
| 739 nM | COc1ccccc1Oc1c(NS(C)(=O)=O)nc(-c2ncccn2)nc1OCCOc1ncccn1 |
| 3.6 nM | CC(C)c1ccc(-c2c(NS(=O)(=O)NCc3ccccc3)ncnc2OCCOc2ncc(Br)cn2)cc1 |

| SMILES | IC50 |
| --- | --- |
| CC[C@H](C)[C@H](NC(=O)[C@@H](NC(=O)[C@H](CC(=O)O)NC(=O)[C@H](CCC(N)=O)NC(=O)[C@H](Cc1cnc[nH]1)NC(=O)[C@@H]1CSSC[C@H](N)C(=O)N[C@@H]([C@@H](C)O)C(=O)N[C@H]2CSSC[C@H](NC(=O)[C@H](CCC(=O)O)NC(=O)[C@H](CCC(=O)O)NC(=O)[C@H](CC(=O)O)NC(=O)[C@H]([C@@H](C)O)NC(=O)[C@H](CCSC)NC(=O)[C@H](CC(=O)O)NC(=O)[C@H](CC(N)=O)NC2=O)C(=O)N[C@@H](CC(C)C)C(=O)N[C@@H](CC(N)=O)C(=O)N[C@@H](Cc2ccccc2)C(=O)N1)C(C)C)C(=O)N[C@@H](Cc1c[nH]c2ccccc12)C(=O)O [SARAFOTOXIN 6C] | > 100 nM |

The molecules below were run on Rattus norvegicus (assay: Effect on heart rate in telemeterized hypertensive Dahl salt-sensitive rat at 3 mg/kg, po).

| SMILES | Activity |
| --- | --- |
| COc1ccc(Cl)c(Oc2c(NS(=O)(=O)NCc3ccccc3)ncnc2OCCOc2ncc(Br)cn2)c1 | inactive |
| COc1cccc(Oc2c(NS(=O)(=O)NCc3ccccc3)ncnc2OCCOc2ncc(Br)cn2)c1 | inactive |

The molecules below were run on Rattus norvegicus (assay: Antihypertensive activity in telemeterized hypertensive Dahl salt-sensitive rat assessed as reduction in mean arterial blood pressure at 3 mg/kg, po measured over 6 hrs).
Type: functional, Artery

| SMILES | Fall in mean arterial blood pressure |
| --- | --- |
| COc1ccc(Cl)c(Oc2c(NS(=O)(=O)NCc3ccccc3)ncnc2OCCOc2ncc(Br)cn2)c1 | 24 mmHg |
| COc1cccc(Oc2c(NS(=O)(=O)NCc3ccccc3)ncnc2OCCOc2ncc(Br)cn2)c1 | 10 mmHg |
| CCNS(=O)(=O)Nc1ncnc(OCCOc2ncc(Br)cn2)c1-c1ccc(Br)cc1 | 20 mmHg |
| CCCNS(=O)(=O)Nc1ncnc(OCCOc2ncc(Br)cn2)c1Oc1cccc(OC)c1 | 15 mmHg |
| CCCCS(=O)(=O)Nc1ncnc(OCCOc2ncc(Br)cn2)c1-c1ccc(Br)cc1 | 22 mmHg |
| CCCS(=O)(=O)Nc1ncnc(OCCOc2ncc(Br)cn2)c1-c1ccc(Br)cc1 | 25 mmHg |
| CCCNS(=O)(=O)Nc1ncnc(OCCOc2ncc(Br)cn2)c1Oc1cc(OC)ccc1Cl | 21 mmHg |
| CNS(=O)(=O)Nc1ncnc(OCCOc2ncc(Br)cn2)c1-c1ccc(Br)cc1 | 21 mmHg |
